# In PubChem BioAssay (NCI):
#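 Where inhibition never reached the appropriate level, the endpoint shown equals the highest concentration tested. Otherwise, values were interpolated linearly from a five-concentration, 48-hour dose response in 96-well plates. Here, GI50 denotes the concentration required for 50% inhibition of growth. TGI marks complete inhibition of growth.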
# Legend:
# Assay in all cases: NCI anticancer screen, dose series, 48 h
# [1] = system: SF-539 CNS
# [2] = system: SN12C renal
# [3] = system: SR leukemia
# [4] = system: ACHN renal
# [5] = system: TK-10 renal
# [6] = system: RPMI-8226 leukemia
# [7] = system: HS 578T breast
# [8] = system: NCI/ADR-RES ovarian
# [9] = system: MCF7 breast
# [10] = system: DU-145 prostate
# [11] = system: CAKI-1 renal
# [12] = system: 786-0 renal
# [13] = system: A549 NSCLC
# [14] = system: HT29 colon
# [15] = system: RXF 393 renal
# [16] = system: SK-OV-3 ovarian
# [17] = system: IGROV1 ovarian
# [18] = system: T-47D breast
# [19] = system: HCC-2998 colon
# [20] = system: OVCAR-8 ovarian
# [21] = system: MDA-MB-231 breast
# [22] = system: BT-549 breast
# [23] = system: OVCAR-5 ovarian
# [24] = system: HCT-15 colon
# [25] = system: SF-295 CNS
# [26] = system: KM12 colon
# [27] = system: HCT-116 colon
# [28] = system: CCRF-CEM leukemia
# [29] = system: MALME-3M melanoma
# [30] = system: SF-268 CNS
# [31] = system: NCI-H23 lung
# [32] = system: SNB-19 CNS
# [33] = system: HOP-62 NSCLC
# [34] = system: UO-31 renal
# [35] = system: NCI-H522 lung
# [36] = system: LOX IMVI melanoma
# [37] = system: UACC-257 melanoma
# [38] = system: SW-620 colon
# [39] = system: A498 renal
# [40] = system: M14 melanoma
# [41] = system: MDA-MB-435
# [42] = system: SK-MEL-28 melanoma
# [43] = system: COLO 205 colon
# [44] = system: PC-3 prostate
# [45] = system: NCI-H460 lung
# [46] = system: NCI-H226 lung
# [47] = system: K-562 leukemia
# [48] = system: MOLT-4 leukemia
# [49] = system: U251 CNS
# [50] = system: UACC-62 melanoma
# [51] = system: EKVX NSCLC
# [52] = system: OVCAR-4 ovarian
# [53] = system: SNB-75 CNS
# [54] = system: SK-MEL-5 melanoma
smiles,measurement,setting,value
C#C[C@]1(O)CC[C@H]2[C@@H]3CC=C4c5sc(N6CCN(C)CC6)nc5CC[C@]4(C)[C@H]3CC[C@@]21C,GI50,[1],1.45 µM
same,TGI,[1],2.9 µM
same,GI50,[2],1.77 µM
same,TGI,[2],3.43 µM
same,GI50,[3],1.56 µM
same,TGI,[3],5.39 µM
same,GI50,[4],1.79 µM
same,TGI,[4],3.25 µM
same,GI50,[5],2.36 µM
same,TGI,[5],4.55 µM
same,GI50,[6],1.6 µM
same,TGI,[6],4.16 µM
same,GI50,[7],2.42 µM
same,TGI,[7],8.44 µM
same,GI50,[8],2.18 µM
same,TGI,[8],5.71 µM
same,GI50,[9],1.83 µM
same,TGI,[9],3.8 µM
same,GI50,[10],2.23 µM
same,TGI,[10],5.13 µM
same,GI50,[11],1.56 µM
same,TGI,[11],3.08 µM
same,GI50,[12],1.7 µM
same,TGI,[12],3.15 µM
same,GI50,[13],1.83 µM
same,TGI,[13],3.39 µM
same,GI50,[14],1.76 µM
same,TGI,[14],4.18 µM
same,GI50,[15],1.42 µM
same,TGI,[15],3.05 µM
same,GI50,[16],1.68 µM
same,TGI,[16],3.18 µM
same,GI50,[17],1.87 µM
same,TGI,[17],3.62 µM
same,GI50,[18],12.1 µM
same,TGI,[18],30.1 µM
same,GI50,[19],2.06 µM
same,TGI,[19],4.35 µM
same,GI50,[20],1.81 µM
same,TGI,[20],3.41 µM
same,GI50,[21],1.93 µM
same,TGI,[21],3.73 µM
same,GI50,[22],1.9 µM
same,TGI,[22],3.95 µM
same,GI50,[23],1.82 µM
same,TGI,[23],3.53 µM
same,GI50,[24],1.25 µM
same,TGI,[24],2.93 µM
same,GI50,[25],1.87 µM
same,TGI,[25],3.96 µM
same,GI50,[26],1.92 µM
same,TGI,[26],4.08 µM
same,GI50,[27],1.78 µM
same,TGI,[27],3.38 µM
same,GI50,[28],2.23 µM
same,TGI,[28],4.74 µM
same,GI50,[29],1.76 µM
same,TGI,[29],3.28 µM
same,GI50,[30],2.01 µM
same,TGI,[30],4.31 µM
same,GI50,[31],1.76 µM
same,TGI,[31],3.59 µM
same,GI50,[32],1.81 µM
same,TGI,[32],3.75 µM
same,GI50,[33],1.71 µM
same,TGI,[33],3.27 µM
same,GI50,[34],1.74 µM
same,TGI,[34],3.17 µM
same,GI50,[35],1.48 µM
same,TGI,[35],3.3 µM
same,GI50,[36],1.7 µM
same,TGI,[36],3.33 µM
same,GI50,[37],1.77 µM
same,TGI,[37],3.27 µM
same,GI50,[38],1.81 µM
same,TGI,[38],3.45 µM
same,GI50,[39],4.25 µM
same,TGI,[39],16.9 µM
same,GI50,[40],1.54 µM
same,TGI,[40],2.97 µM
same,GI50,[41],1.16 µM
same,TGI,[41],2.53 µM
same,GI50,[42],1.68 µM
same,TGI,[42],3.19 µM
same,GI50,[43],1.98 µM
same,TGI,[43],3.83 µM
same,GI50,[44],1.61 µM
same,TGI,[44],3.07 µM
same,GI50,[45],1.99 µM
same,TGI,[45],3.8 µM
same,GI50,[46],9.83 µM
same,TGI,[46],28.8 µM
same,GI50,[47],1.34 µM
same,TGI,[47],4.5 µM
same,GI50,[48],1.89 µM
same,TGI,[48],4.66 µM
same,GI50,[49],1.51 µM
same,TGI,[49],2.87 µM
same,GI50,[50],1.79 µM
same,TGI,[50],3.42 µM
same,GI50,[51],1.84 µM
same,TGI,[51],3.83 µM
same,GI50,[52],1.94 µM
same,TGI,[52],4.02 µM
same,GI50,[53],1.69 µM
same,TGI,[53],3.87 µM
same,GI50,[54],1.74 µM
same,TGI,[54],3.2 µM
